Experiments:
Format in all cases: functional
[1] = In vitro inhibitory activity against Sarcoma 180 cells; conditions: Mus musculus, read-out: ED50 (the source's name)
Human alphaherpesvirus 1 [2] = test: Percent inhibition of herpes simplex type-1 virus at the concentration of 1 uM
L1210 = test: In vitro inhibitory activity against murine leukemia L1210 cells; conditions: Mus musculus, read-out: ED50 (the source's name)
Human alphaherpesvirus 1 [3] = test: Percent inhibition of herpes simplex type-1 virus at the concentration of 175 uM
Human alphaherpesvirus 1 [4] = test: Percent inhibition of herpes simplex type-1 virus at the concentration of 10 uM
Human alphaherpesvirus 1 [5] = test: Percent inhibition of herpes simplex type-1 virus at the concentration of 20 uM
Human alphaherpesvirus 1 [6] = test: Percent inhibition of herpes simplex type-1 virus at the concentration of 50 uM

Structure (SMILES) | EC50 [1] [nM] | EC50 (L1210) [nM] | further results
COc1cc2c(c(OC)c1OC)-c1ccc(SC)c(=O)cc1C(NC(=O)N(CCCl)N=O)CC2 (centres undefined) | 27 | 12 | inhibition at 1 µM (Human alphaherpesvirus 1 [2]): 76%
CNC(=O)NC1CCc2cc(OC)c(OC)c(OC)c2-c2ccc(SC)c(=O)cc21 (centres undefined) | 29 | 33 | inhibition at 175 µM (Human alphaherpesvirus 1 [3]): 85%
COc1cc2c(c(OC)c1OC)-c1ccc(SC)c(=O)cc1C(NC(=O)N(C)N=O)CC2 (centres undefined) | 26 | 18 | inhibition at 10 µM (Human alphaherpesvirus 1 [4]): 86%
COc1cc2c(c(OC)c1OC)-c1ccc(SC)c(=O)cc1C(NC(=O)NCCCl)CC2 (centres undefined) | 30 | 16 | inhibition at 20 µM (Human alphaherpesvirus 1 [5]): 72%
O=NN(CCCl)C(=O)NCCCl [CARMUSTINE] |  | 4000 | 
O=c1[nH]c(=O)n([C@H]2C[C@H](O)[C@@H](CO)O2)cc1I [IDOXURIDINE] |  |  | inhibition at 50 µM (Human alphaherpesvirus 1 [6]): 99.3%

Source: ChEMBL document CHEMBL1121377, “Synthesis and biological activities of chloroethylurea, methylurea, and nitrosourea analogues of N-deacetylmethylthiocolchicine” (1980)
